Source: paper PMC4890880 (ACS infectious diseases, 2016)
Where two headings read alike, the source gives them in different places.

Columns and labels:
[1] = system: Plasmodium berghei (Pb-Luc) exoerythrocytic-stage parasites; test: microbe, parasite or virus in culture
HepG2-A16-CD81EGFP cells [2] = test: cells; conditions: Homo sapiens, HepG2, read-out: % inhibition
HepG2-A16-CD81EGFP cells [3] = conditions: human, 50 uM
[4] = read-out: Inhibition% @ 50 uM rep1
[5] = read-out: Inhibition% @ 50 uM rep2

Compound | inhibition at 50 µM [1, 4] | inhibition at 50 µM [1, 5] | inhibition at 50 µM (HepG2-A16-CD81EGFP cells [2]) | HepG2 Tox% @ 50 uM rep1 (HepG2-A16-CD81EGFP cells [3]) | HepG2 Tox% @ 50 uM rep2 (HepG2-A16-CD81EGFP cells [3])
OC(Cn1nnc2ccccc21)Cn1c2ccc(Br)cc2c2cc(Br)ccc21 (centres unmarked) [MMV666025] | 99% | 97% | 43.6% | – | –
Cn1c(=O)c2cc(C(=O)NCCCN3CCCCCC3)sc2c2ccccc21 [MMV019313] | 104% | 106% | 99.9% | 100% | –
Cc1cccc(N2C(=O)C3C(C2=O)C2(c4ccccc4)C(=O)C3(c3ccccc3)C(c3ccc4c(c3)OCO4)=C2c2ccc3c(c2)OCO3)c1 (centres unmarked) [MMV007228] | 57% | 57% | -4.28% | – | –
O=C(Nc1ccc(CN2CCOCC2)cc1)c1ccc(-c2cc(Cl)ccc2Cl)o1 [MMV020651] | 100% | 99% | 93.9% | – | 96%
CCN1CCN(Cc2ccc(NC(=O)c3cc4ccc5cccnc5c4[nH]3)cc2)CC1 [MMV020548] | 102% | 106% | 98.4% | – | 100%
COc1cc(OC)cc(N2C(=O)N(Cc3ccc(C(C)(C)C)cc3)c3ccccc3S2(=O)=O)c1 [MMV008173] | 78% | 88% | -9.98% | – | –
CCN(CC)c1cc(C)c2cc(NC(=O)c3cccc(OC)c3)ccc2n1 [MMV000498] | 104% | 106% | 99.5% | 100% | 101%
CCc1ccc(Nc2cc(C)c3ccc(O)cc3n2)cc1 [MMV000570] | 103% | 105% | 98.1% | – | 100%
COc1ccc(C(=O)C2CC2c2ccc(Cl)cc2)cc1 (centres unmarked) [MMV665924] | 79% | 83% | 38.1% | – | –
Oc1ccc(Br)cc1CN1CCN(Cc2ccc(Cl)cc2)CC1 [MMV665809] | 103% | 103% | 93.9% | – | –
O=C(Nc1ccccc1O)c1ccc(Oc2cccc(C(=O)Nc3ccccc3O)c2)cc1 [MMV665888] | 102% | 104% | 98.7% | – | 100%
Cc1nc2ccccc2c(O)c1CC=C(Cl)Cl [MMV665994] | 100% | 102% | 31.7% | – | –
O=C(NCC1Cc2cccc(-c3ccncc3)c2O1)c1csc2c1CCCC2 (centres unmarked) [MMV665954] | 100% | 102% | 95.9% | – | 98%
CCOc1ccc2c(c1)CN(Cc1ccc(Cl)cc1)CO2 [MMV000443] | 102% | 104% | 95.5% | – | –
Cn1c(=O)n(C)c2cc(CNCCNc3ccnc4cc(Cl)ccc34)ccc21 [MMV665875] | 92% | 92% | 45.3% | – | –
COc1ccc(-c2cn3c(C(=O)Nc4ccccc4Cl)c(-c4ccccc4)c4c3n2CCCC4)cc1 [MMV020403] | 102% | 103% | 52.5% | – | –
Cn1c(C(=O)c2cccc3ccccc23)nc2ccccc21 [MMV665824] | 96% | 98% | 35.6% | – | –
COc1ccc(CNC(=O)c2cc3c(=O)n4ccccc4nc3n(CCc3ccccc3)c2=N)cc1 [MMV665881] | 68% | 76% | 1.19% | – | –
O=C(NC1CCCCC1)C(c1cccs1)N(CCc1ccccc1)C(=O)c1ccco1 (centres unmarked) [MMV666106] | 102% | 103% | 76.6% | – | –
Cc1ccccc1OCCSc1nc2ccc(NC(=O)c3cccs3)cc2s1 [MMV007396] | 103% | 104% | 37.1% | – | –
COc1ccc(C(=O)NC(c2ccccc2Cl)c2cc(Cl)c3cccnc3c2O)cc1 (centres unmarked) [MMV666022] | 103% | 104% | 99.5% | – | –
CCCCN(CCCC)S(=O)(=O)c1ccc(NC(=O)c2ccco2)cc1 [MMV007881] | 98% | 99% | 94.7% | – | –
CCCCOC(=O)c1ccc(Nc2cc(C)nc3ccc(OC)cc23)cc1 [MMV665797] | 100% | 101% | 95.1% | – | –
CCOC(=O)C1(Cc2ccccc2)CCN(Cc2cccc(OC)c2O)CC1 [MMV666109] | 99% | 100% | 79% | – | –
Cc1cc(N2CCCC2)nc(Nc2ccc(NC(=O)CCc3ccccc3)cc2)n1 [MMV396669] | 103% | 103% | 96.9% | – | –
